# Laboratory results as given in patent US20260224588A1, “BENZODIAZEPINONE-DERIVED INHIBITORS OF EGFR AND HER2” (The Research Foundation for the State University of New York, priority 2023, published 2026).
# Experiments:
# Assay in all cases: KINOMEscan
# Type in all cases: binding
# Settings in all cases: 1 μM of compound 4; read-out: POC
# CHEK2 = CHEK2 (Homo sapiens, UniProt O96017)
# MEK5 = MEK5 (Homo sapiens, UniProt Q13163)
# STK36 = target: T1, STK36 (Homo sapiens, UniProt Q9NRP7)
# T1 construct: purchased Eurofins DiscoverX (KINOMEscan service)
# PAK3 = target: T2, PAK3 (Homo sapiens, UniProt O75914)
# T2 construct: purchased Eurofins DiscoverX Corporation (KINOMEscan)
# KIT(D816H) = KIT(D816H) (Homo sapiens, UniProt P10721, D816H)
# SGK3 = target: T3, SGK3 (Homo sapiens, UniProt Q96BR1)
# T3 construct: purchased Eurofins DiscoverX (KINOMEscan service)
# MARK4 = MARK4 (Homo sapiens, UniProt Q96L34)
# MET(Y1235D) = MET(Y1235D) (Homo sapiens, UniProt P08581, Y1235D)
# [1] = target: T4, ABL1(F317I)-nonphosphorylated (Homo sapiens, UniProt P00519, F317I)
# T4 construct: purchased Eurofins DiscoverX Corporation
# KIT = KIT (Homo sapiens, UniProt P10721)
# CSF1R = CSF1R (Homo sapiens, UniProt P07333)
# [2] = target: T5, EGFR(L747-E749del + A750P) (Homo sapiens, UniProt P00533, A750P/DEL747-749)
# T5 construct: purchased Eurofins DiscoverX (KINOMEscan service)
# CDK9 = CDK9 (Homo sapiens, UniProt P50750)
# MEK3 = MEK3 (Homo sapiens, UniProt P46734)
# TXK = target: T6, TXK (Homo sapiens, UniProt P42681)
# T6 construct: purchased Eurofins DiscoverX
# [3] = target: T7, ABL1(Q252H)-phosphorylated (Homo sapiens, UniProt P00519, Q252H)
# T7 construct: purchased Eurofins DiscoverX Corporation
# PAK1 = target: T8, PAK1 (Homo sapiens, UniProt Q13153)
# T8 construct: purchased Eurofins DiscoverX Corporation (KINOMEscan)
# MAK = MAK (Homo sapiens, UniProt P20794)
# NEK3 = NEK3 (Homo sapiens, UniProt P51956)
# CSNK1G3 = CSNK1G3 (Homo sapiens, UniProt Q9Y6M4)
# LATS1 = LATS1 (Homo sapiens, UniProt O95835)
# IKK-beta = IKK-beta (Homo sapiens, UniProt O14920)
# CDC2L2 = CDC2L2 (Homo sapiens, UniProt Q9UQ88)
# NEK5 = NEK5 (Homo sapiens, UniProt Q6P3R8)
# ACVR2B = ACVR2B (Homo sapiens, UniProt Q13705)
# BMPR1A = BMPR1A (Homo sapiens, UniProt P36894)
# ACVR1 = target: T9, ACVR1 (Homo sapiens, UniProt Q04771)
# T9 construct: purchased Eurofins DiscoverX Corporation
# MRCKB = MRCKB (Homo sapiens, UniProt Q9Y5S2)
# EGFR(G719C) = target: T10, EGFR(G719C) (Homo sapiens, UniProt P00533, G719C)
# T10 construct: purchased Eurofins DiscoverX (KINOMEscan service)
# DCAMKL3 = DCAMKL3 (Homo sapiens, UniProt Q9C098)
# ABL1-nonphosphorylated = target: T11, ABL1-nonphosphorylated (Homo sapiens, UniProt P00519)
# T11 construct: purchased Eurofins DiscoverX Corporation
# FLT3(D835Y) = target: T12, FLT3(D835Y) (Homo sapiens, UniProt P36888, D835Y)
# T12 construct: purchased Eurofins DiscoverX Corporation
# PRKG1 = PRKG1 (Homo sapiens, UniProt Q13976)
# PRP4 = PRP4 (Homo sapiens, UniProt Q13523)
# ICK = ICK (Homo sapiens, UniProt Q9UPZ9)
# ERBB2 = target: T13, ERBB2 (Homo sapiens, UniProt P04626)
# T13 construct: purchased Eurofins DiscoverX Corporation
# LATS2 = LATS2 (Homo sapiens, UniProt Q9NRM7)
# VRK2 = target: T14, VRK2 (Homo sapiens, UniProt Q86Y07)
# T14 construct: purchased Eurofins DiscoverX
# BIKE = BIKE (Homo sapiens, UniProt Q9NSY1)
# T9 sequence (Q04771 21-509): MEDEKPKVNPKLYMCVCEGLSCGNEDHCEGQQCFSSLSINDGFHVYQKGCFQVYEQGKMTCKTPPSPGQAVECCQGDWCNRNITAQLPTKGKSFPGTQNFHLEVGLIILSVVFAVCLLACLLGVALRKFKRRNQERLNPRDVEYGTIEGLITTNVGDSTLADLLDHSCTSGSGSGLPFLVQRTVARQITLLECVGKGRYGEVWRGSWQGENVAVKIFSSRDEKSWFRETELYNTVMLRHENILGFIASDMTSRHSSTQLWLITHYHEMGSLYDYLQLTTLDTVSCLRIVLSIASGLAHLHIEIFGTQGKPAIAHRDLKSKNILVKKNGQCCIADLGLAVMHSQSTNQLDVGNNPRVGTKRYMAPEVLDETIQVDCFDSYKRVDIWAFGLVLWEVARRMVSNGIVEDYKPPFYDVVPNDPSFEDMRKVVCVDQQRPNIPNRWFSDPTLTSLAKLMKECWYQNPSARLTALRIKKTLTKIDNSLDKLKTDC
# Chain of MEK3 (P46734 whole entry): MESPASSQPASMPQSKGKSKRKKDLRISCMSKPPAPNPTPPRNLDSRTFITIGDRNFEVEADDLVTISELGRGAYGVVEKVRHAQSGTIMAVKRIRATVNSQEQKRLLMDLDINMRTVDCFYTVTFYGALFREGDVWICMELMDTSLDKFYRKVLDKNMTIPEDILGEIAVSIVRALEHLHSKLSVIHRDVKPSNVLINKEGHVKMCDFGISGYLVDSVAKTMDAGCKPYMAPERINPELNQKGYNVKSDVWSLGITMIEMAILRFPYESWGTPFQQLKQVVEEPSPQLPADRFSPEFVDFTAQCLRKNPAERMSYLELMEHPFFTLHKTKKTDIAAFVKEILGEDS
# Chain of KIT(D816H) (P10721 26-976 D816H): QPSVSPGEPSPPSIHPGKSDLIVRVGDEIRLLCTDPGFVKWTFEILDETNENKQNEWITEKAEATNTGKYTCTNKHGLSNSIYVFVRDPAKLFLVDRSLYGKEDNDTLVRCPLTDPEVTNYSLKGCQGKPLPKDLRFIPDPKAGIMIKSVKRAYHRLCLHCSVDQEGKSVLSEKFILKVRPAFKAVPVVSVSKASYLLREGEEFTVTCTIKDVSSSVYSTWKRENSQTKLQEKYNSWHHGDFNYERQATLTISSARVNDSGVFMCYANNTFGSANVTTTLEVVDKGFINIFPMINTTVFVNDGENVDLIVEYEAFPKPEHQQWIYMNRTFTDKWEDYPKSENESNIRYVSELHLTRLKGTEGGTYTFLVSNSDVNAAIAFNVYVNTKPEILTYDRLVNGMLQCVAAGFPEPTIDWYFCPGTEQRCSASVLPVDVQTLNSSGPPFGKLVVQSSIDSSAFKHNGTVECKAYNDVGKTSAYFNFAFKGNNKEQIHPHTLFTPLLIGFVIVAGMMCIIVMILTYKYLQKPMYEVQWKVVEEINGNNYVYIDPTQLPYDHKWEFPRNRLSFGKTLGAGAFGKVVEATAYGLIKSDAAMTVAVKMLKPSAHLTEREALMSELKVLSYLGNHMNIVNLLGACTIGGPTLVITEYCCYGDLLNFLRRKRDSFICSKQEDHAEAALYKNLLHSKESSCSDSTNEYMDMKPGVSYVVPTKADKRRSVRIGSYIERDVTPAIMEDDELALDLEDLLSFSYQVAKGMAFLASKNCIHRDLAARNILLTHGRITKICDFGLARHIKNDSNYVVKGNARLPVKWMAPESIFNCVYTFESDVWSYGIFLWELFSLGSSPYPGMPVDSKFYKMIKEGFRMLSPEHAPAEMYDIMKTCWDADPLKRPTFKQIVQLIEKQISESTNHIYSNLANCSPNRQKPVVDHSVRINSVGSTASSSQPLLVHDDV
# Chain of MEK5 (Q13163 whole entry): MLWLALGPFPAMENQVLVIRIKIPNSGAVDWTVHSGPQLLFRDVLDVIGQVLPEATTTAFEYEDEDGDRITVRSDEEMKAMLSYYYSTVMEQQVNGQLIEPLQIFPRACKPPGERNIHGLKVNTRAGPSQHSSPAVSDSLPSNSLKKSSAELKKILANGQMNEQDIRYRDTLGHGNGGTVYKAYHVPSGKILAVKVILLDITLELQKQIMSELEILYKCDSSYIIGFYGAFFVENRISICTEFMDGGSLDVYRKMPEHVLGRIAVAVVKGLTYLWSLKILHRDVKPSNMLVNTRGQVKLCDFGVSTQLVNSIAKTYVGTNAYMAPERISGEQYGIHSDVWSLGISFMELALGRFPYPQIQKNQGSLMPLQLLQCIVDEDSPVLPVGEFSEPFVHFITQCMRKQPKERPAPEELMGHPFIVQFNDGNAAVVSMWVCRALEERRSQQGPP
# Chain of NEK5 (Q6P3R8 whole entry): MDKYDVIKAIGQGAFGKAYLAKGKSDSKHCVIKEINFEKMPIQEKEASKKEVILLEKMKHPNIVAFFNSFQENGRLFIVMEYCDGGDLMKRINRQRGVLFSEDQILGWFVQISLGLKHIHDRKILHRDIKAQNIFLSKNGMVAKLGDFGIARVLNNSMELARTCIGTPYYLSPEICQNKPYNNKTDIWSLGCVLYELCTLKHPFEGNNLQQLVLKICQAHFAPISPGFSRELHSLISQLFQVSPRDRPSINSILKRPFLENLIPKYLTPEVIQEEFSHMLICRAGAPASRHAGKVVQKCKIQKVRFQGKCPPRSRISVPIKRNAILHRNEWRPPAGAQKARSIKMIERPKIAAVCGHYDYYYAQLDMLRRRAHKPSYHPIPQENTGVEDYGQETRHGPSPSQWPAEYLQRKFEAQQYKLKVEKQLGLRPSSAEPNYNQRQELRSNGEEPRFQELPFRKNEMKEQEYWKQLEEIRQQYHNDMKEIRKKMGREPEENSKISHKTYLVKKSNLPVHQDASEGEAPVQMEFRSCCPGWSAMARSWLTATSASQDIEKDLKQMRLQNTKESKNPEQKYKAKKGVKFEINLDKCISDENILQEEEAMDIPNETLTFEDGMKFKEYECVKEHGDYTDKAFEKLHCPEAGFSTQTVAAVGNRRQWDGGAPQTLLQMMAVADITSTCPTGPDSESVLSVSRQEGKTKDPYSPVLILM
# T8 sequence (Q13153 whole entry): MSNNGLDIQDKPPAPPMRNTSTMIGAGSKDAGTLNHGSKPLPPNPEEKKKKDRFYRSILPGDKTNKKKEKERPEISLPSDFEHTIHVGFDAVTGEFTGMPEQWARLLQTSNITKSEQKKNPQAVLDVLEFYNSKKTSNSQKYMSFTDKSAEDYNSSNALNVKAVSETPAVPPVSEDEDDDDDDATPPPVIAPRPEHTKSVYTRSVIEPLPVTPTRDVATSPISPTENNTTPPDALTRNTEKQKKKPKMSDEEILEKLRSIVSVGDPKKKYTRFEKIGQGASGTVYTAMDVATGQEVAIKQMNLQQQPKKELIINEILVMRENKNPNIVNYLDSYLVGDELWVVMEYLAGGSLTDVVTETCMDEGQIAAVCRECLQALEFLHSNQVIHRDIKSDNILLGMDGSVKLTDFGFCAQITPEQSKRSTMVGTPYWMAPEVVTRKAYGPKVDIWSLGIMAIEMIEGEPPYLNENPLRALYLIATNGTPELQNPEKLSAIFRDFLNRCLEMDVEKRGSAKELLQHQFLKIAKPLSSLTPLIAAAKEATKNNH
# Chain of MARK4 (Q96L34 whole entry): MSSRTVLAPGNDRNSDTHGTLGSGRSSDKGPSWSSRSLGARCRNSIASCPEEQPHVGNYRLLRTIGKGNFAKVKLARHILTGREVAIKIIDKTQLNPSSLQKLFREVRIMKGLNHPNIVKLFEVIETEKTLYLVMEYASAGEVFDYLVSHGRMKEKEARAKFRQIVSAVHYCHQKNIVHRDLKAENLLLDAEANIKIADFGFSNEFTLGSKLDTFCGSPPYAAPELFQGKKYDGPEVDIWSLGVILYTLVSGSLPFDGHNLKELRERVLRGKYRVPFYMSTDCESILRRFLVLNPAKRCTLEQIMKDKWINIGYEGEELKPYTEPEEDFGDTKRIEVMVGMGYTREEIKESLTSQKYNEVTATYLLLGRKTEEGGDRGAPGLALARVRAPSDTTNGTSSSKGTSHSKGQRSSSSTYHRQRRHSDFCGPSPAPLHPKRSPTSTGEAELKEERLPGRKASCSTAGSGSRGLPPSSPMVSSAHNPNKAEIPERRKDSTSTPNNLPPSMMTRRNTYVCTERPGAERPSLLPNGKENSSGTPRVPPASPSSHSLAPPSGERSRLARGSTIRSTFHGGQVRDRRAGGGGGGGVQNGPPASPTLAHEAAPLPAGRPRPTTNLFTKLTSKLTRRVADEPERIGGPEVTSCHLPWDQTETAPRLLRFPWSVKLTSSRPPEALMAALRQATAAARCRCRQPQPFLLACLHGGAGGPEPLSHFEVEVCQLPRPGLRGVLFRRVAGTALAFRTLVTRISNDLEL
# Chain of PRKG1 (Q13976 whole entry): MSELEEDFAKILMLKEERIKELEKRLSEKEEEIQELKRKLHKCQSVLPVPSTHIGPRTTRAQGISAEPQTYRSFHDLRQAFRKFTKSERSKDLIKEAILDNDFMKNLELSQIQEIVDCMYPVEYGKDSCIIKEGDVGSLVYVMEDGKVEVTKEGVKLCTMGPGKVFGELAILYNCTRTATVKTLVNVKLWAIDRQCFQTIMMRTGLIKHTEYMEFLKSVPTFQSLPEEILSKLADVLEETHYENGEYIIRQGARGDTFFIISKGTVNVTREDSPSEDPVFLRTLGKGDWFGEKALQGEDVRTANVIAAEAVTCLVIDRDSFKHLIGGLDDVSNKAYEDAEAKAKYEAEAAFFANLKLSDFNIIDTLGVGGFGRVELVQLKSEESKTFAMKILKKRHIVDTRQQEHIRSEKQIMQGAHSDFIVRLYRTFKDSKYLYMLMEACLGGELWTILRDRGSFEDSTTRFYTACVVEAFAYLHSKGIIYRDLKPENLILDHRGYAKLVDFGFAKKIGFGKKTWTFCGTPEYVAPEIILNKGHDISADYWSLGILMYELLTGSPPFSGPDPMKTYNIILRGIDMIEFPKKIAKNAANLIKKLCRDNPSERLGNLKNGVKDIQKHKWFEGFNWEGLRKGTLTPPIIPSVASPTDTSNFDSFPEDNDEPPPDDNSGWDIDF
# Chain of KIT (P10721 26-976): as the sequence (P10721 26-976 D816H) above, with H791D counted along it
structure (smiles),measurement,setting,value
"C=CC(=O)Nc1ccc(OC)c(Nc2cc(-c3[nH]c(CC)nc3-c3cccc(NC(=O)c4cccc5c4NC(=O)c4ccccc4N5)c3)ccn2)c1 [Compound 4, N-(3-(5-(2-((5-Acrylamido-2-methoxyphenyl)amino)pyridin-4-yl)-2-ethyl-1H-imidazol-4-yl)phenyl)-11-oxo-10,11-dihydro-5H-dibenzo[b,e][1,4]diazepine-9-carboxamide]",remaining binding at 1 µM,CHEK2,87%
same,remaining binding at 1 µM,MEK5,41%
same,remaining binding at 1 µM,STK36,30%
same,remaining binding at 1 µM,PAK3,70%
same,remaining binding at 1 µM,KIT(D816H),39%
same,remaining binding at 1 µM,SGK3,90%
same,remaining binding at 1 µM,MARK4,92%
same,remaining binding at 1 µM,MET(Y1235D),97%
same,remaining binding at 1 µM,[1],40%
same,remaining binding at 1 µM,KIT,100%
same,remaining binding at 1 µM,CSF1R,100%
same,remaining binding at 1 µM,[2],8%
same,remaining binding at 1 µM,CDK9,100%
same,remaining binding at 1 µM,MEK3,100%
same,remaining binding at 1 µM,TXK,42%
same,remaining binding at 1 µM,[3],90%
same,remaining binding at 1 µM,PAK1,100%
same,remaining binding at 1 µM,MAK,89%
same,remaining binding at 1 µM,NEK3,100%
same,remaining binding at 1 µM,CSNK1G3,98%
same,remaining binding at 1 µM,LATS1,100%
same,remaining binding at 1 µM,IKK-beta,88%
same,remaining binding at 1 µM,CDC2L2,91%
same,remaining binding at 1 µM,NEK5,100%
same,remaining binding at 1 µM,ACVR2B,72%
same,remaining binding at 1 µM,BMPR1A,85%
same,remaining binding at 1 µM,ACVR1,96%
same,remaining binding at 1 µM,MRCKB,1.7%
same,remaining binding at 1 µM,EGFR(G719C),6.5%
same,remaining binding at 1 µM,DCAMKL3,86%
same,remaining binding at 1 µM,ABL1-nonphosphorylated,100%
same,remaining binding at 1 µM,FLT3(D835Y),96%
same,remaining binding at 1 µM,PRKG1,100%
same,remaining binding at 1 µM,PRP4,46%
same,remaining binding at 1 µM,ICK,100%
same,remaining binding at 1 µM,ERBB2,18%
same,remaining binding at 1 µM,LATS2,62%
same,remaining binding at 1 µM,VRK2,100%
same,remaining binding at 1 µM,BIKE,100%
